Strand notation (5' to 3'): a small letter for the sugar, then the base; units joined by * are phosphorothioate-linked, units joined directly phosphodiester-linked; [ ] holds rarer units or linkages, { } end groups; capitals alone tell only the bases. k = constrained ethyl (cEt); [5mC] = 5-methylcytosine; d = 2'-deoxy (DNA)
Tested on: Yap1 mRNA
Assay: Antisense inhibition of human Yap1 in A-431 cells by cEt gapmers, single dose (Example 3, RTS36584)
Assay type: cell-based
Method in brief: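 Read-out is Yap1 mRNA as percent of untreated control, by quantitative RT-PCR normalized to total RNA (RiboGreen). Cells (A-431) received 2,000 nM of 3-10-3 cEt phosphorothioate gapmer via free uptake for roughly 48 hours.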

[1] = Table 28, Yap1 mRNA as percent of untreated control, 3-10-3 cEt gapmers targeting SEQ ID NO.: 1, and 2
[2] = Table 27, Yap1 mRNA by 3-10-3 cEt gapmers targeting SEQ ID NO.: 1, and 2, percent of untreated control
[3] = Table 12, A-431 cells, 5,000 cells per well, free uptake, 2,000 nM modified oligonucleotide, approx. 48 hours, RTS36584, normalized to RIBOGREEN, Yap1 mRNA relative to untreated control cells
[4] = Table 8, A-431 cells, 5,000 cells per well, free uptake, 2,000 nM, approximately 48 hours, RTS36584, normalized to RIBOGREEN, Yap1 mRNA relative to untreated control cells
[5] = Table 13, A-431 cells, 5,000 cells per well, free uptake, 2,000 nM modified oligonucleotide, approx. 48 hours, RTS36584, normalized to RIBOGREEN, Yap1 mRNA relative to untreated control cells
[6] = Table 35, Yap1 mRNA as percent of untreated control, 3-10-3 cEt gapmers targeting SEQ ID NO: 1 and 2, single dose
[7] = Table 9, A-431 cells, 5,000 cells per well, free uptake, 2,000 nM, approximately 48 hours, RTS36584, normalized to RIBOGREEN, Yap1 mRNA relative to untreated control cells
[8] = Table 34, Yap1 mRNA as percent of untreated control, 3-10-3 cEt gapmers targeting SEQ ID NO: 1 and 2, single dose
[9] = Table 29, Yap1 mRNA as percent of untreated control, 3-10-3 cEt gapmers targeting SEQ ID NO.: 1, and 2
[10] = Table 11, A-431 cells, 5,000 cells per well, free uptake, 2,000 nM oligonucleotide, approx. 48 hours, primer probe set RTS36584, Yap1 mRNA normalized to RIBOGREEN, percent of untreated control
[11] = Table 26, Yap1 mRNA by 3-10-3 cEt gapmers targeting SEQ ID NO.: 1, and 2, percent of untreated control

## 1075598 (antisense kA*kA*kT*dT*dA*dA*d[5mC]*dA*dT*dT*dT*dG*d[5mC]*k[5mC]*k[5mC]*kG) [compound 1075598]
[1]
  YAP1 (% UTC): 62 % UTC

## 1074989 (antisense kG*kA*kG*dG*dG*dA*dA*dA*dG*d[5mC]*dA*d[5mC]*dG*k[5mC]*k[5mC]*k[5mC]) [compound 1074989]
[2]
  YAP1 (% UTC): 105 % UTC

## 958584 (k[5mC]*k[5mC]*k[5mC]*dT*dA*dA*dG*d[5mC]*dT*dA*dA*dA*dG*k[5mC]*kT*kA; antisense) [Compound 958584]
[3]
  YAP1 (% UTC): 74 % UTC

## 958622 (antisense kG*kA*kT*dA*dT*dT*d[5mC]*d[5mC]*dG*d[5mC]*dA*dT*dT*kG*k[5mC]*k[5mC]) [Compound 958622]
Table 10, A-431 cells, 5,000 cells per well, free uptake, 2,000 nM oligonucleotide, approx. 48 hours, primer probe set RTS36584, Yap1 mRNA normalized to RIBOGREEN, percent of untreated control
  YAP1 (% UTC): 3 % UTC

## 958379 (antisense kG*k[5mC]*kG*d[5mC]*d[5mC]*d[5mC]*dG*d[5mC]*d[5mC]*d[5mC]*dG*d[5mC]*dA*k[5mC]*k[5mC]*kG) [Compound 958379]
[4]
  YAP1 (% UTC): 124 % UTC

## 958520 (k[5mC]*kT*kA*d[5mC]*d[5mC]*dG*dT*dA*dT*dG*d[5mC]*d[5mC]*d[5mC]*kA*kG*kA; antisense) [Compound 958520]
[5]
  YAP1 (% UTC): 27 % UTC

## 958370 (antisense k[5mC]*kT*kT*dT*dA*dT*d[5mC]*dT*dA*dG*d[5mC]*dT*dT*kG*kG*kT) [Compound 958370]
[4]
  YAP1 (% UTC): 7 % UTC

## 1076013 (kG*kT*kT*dT*dA*dA*dT*dA*d[5mC]*d[5mC]*dT*d[5mC]*dT*kG*kA*k[5mC]; antisense) [compound 1076013]
[2]
  YAP1 (% UTC): 76 % UTC

## 1075981 (kA*kA*kG*d[5mC]*dA*dA*dT*dA*dT*d[5mC]*d[5mC]*dT*dA*k[5mC]*kA*k[5mC]; antisense) [compound 1075981]
[2]
  YAP1 (% UTC): 40 % UTC

## 1075253 (kG*kT*kT*dA*dA*dT*dT*dA*d[5mC]*dG*dA*dT*dT*kA*kG*kA; antisense) [compound 1075253]
[6]
  YAP1 (% UTC): 20 % UTC

## 958641 (antisense kA*kG*k[5mC]*dT*dA*d[5mC]*dA*dG*dA*dG*d[5mC]*dT*dT*kA*kA*k[5mC]) [Compound 958641]
[7]
  YAP1 (% UTC): 102 % UTC

## 1075438 (antisense k[5mC]*kA*kT*dA*dT*dT*dA*dG*dA*dG*dT*dT*dG*kA*kG*kG) [compound 1075438]
[1]
  YAP1 (% UTC): 22 % UTC

## 1075758 (kG*kT*kA*dA*dT*dT*dT*dA*dA*dT*dA*dG*dA*k[5mC]*kT*kA; antisense) [compound 1075758]
[1]
  YAP1 (% UTC): 73 % UTC

## 958554 (kA*kA*k[5mC]*d[5mC]*dA*dT*dT*dA*dT*dT*dA*d[5mC]*dT*k[5mC]*k[5mC]*kT; antisense) [Compound 958554]
[3]
  YAP1 (% UTC): 1 % UTC

## 958805 (k[5mC]*kA*kA*dG*dA*dT*dA*dA*dT*d[5mC]*dA*dT*d[5mC]*k[5mC]*kT*k[5mC]; antisense) [Compound 958805]
[5]
  YAP1 (% UTC): 6 % UTC

## 958616 (antisense kG*kG*kT*dG*dG*dT*d[5mC]*dT*dT*dG*dT*dT*d[5mC]*kT*kT*kA) [Compound 958616]
[7]
  YAP1 (% UTC): 10 % UTC

## 958769 (antisense k[5mC]*kA*kT*dT*dG*d[5mC]*d[5mC]*dA*d[5mC]*dG*dA*dT*d[5mC]*kT*kA*kA) [Compound 958769]
[3]
  YAP1 (% UTC): 36 % UTC

## 958694 (antisense kA*kT*kT*dG*dG*dT*dG*dG*dT*dG*dT*d[5mC]*dT*k[5mC]*kA*k[5mC]) [Compound 958694]
[3]
  YAP1 (% UTC): 41 % UTC

## 958359 (antisense kT*kG*k[5mC]*dA*dT*d[5mC]*dA*dG*dT*dA*d[5mC]*dT*dG*kG*k[5mC]*k[5mC]) [Compound 958359]
[4]
  YAP1 (% UTC): 117 % UTC

## 1075700 (kG*k[5mC]*k[5mC]*dA*dA*dA*dT*dA*dA*dG*dA*dG*dG*kT*kA*kG; antisense) [compound 1075700]
[8]
  YAP1 (% UTC): 22 % UTC

## 1076079 (kA*kA*kG*d[5mC]*dA*dA*dT*dA*dT*dA*dT*dG*dG*k[5mC]*k[5mC]*kT; antisense) [compound 1076079]
[9]
  YAP1 (% UTC): 37 % UTC

## 958513 (kG*k[5mC]*kG*d[5mC]*dT*dA*d[5mC]*d[5mC]*dA*dT*dT*dT*dT*kA*kA*kA; antisense) [Compound 958513]
[10]
  YAP1 (% UTC): 104 % UTC

## 1074228 (antisense kG*kA*k[5mC]*dT*dG*dT*d[5mC]*dG*dA*dA*dG*dA*dT*kG*k[5mC]*kT) [compound 1074228]
[8]
  YAP1 (% UTC): 17 % UTC

## 958529 (k[5mC]*kA*kA*dG*dT*d[5mC]*dT*dT*dG*dT*dA*dA*dG*kT*kA*kA; antisense) [Compound 958529]
[3]
  YAP1 (% UTC): 3 % UTC

## 958383 (antisense k[5mC]*kT*kT*d[5mC]*d[5mC]*dT*d[5mC]*dT*dG*d[5mC]*dG*d[5mC]*dG*k[5mC]*k[5mC]*k[5mC]) [Compound 958383]
[4]
  YAP1 (% UTC): 96 % UTC

## 1075572 (antisense k[5mC]*kA*kA*dT*dT*dT*dA*dA*d[5mC]*dT*dG*dT*dT*kA*k[5mC]*kA) [compound 1075572]
[8]
  YAP1 (% UTC): 84 % UTC

## 1076431 (k[5mC]*kA*k[5mC]*d[5mC]*dA*dA*dT*dA*dG*dA*dA*d[5mC]*dA*kT*kA*kT; antisense) [compound 1076431]
[9]
  YAP1 (% UTC): 31 % UTC

## 958655 (kG*k[5mC]*kA*dA*dT*d[5mC]*dT*dG*dT*dG*dA*dT*d[5mC]*k[5mC]*k[5mC]*kA; antisense) [Compound 958655]
[5]
  YAP1 (% UTC): 12 % UTC

## 958683 (kT*kA*kT*dT*dG*dT*dG*d[5mC]*dT*dG*d[5mC]*dA*dT*k[5mC]*kT*k[5mC]; antisense) [Compound 958683]
[10]
  YAP1 (% UTC): 16 % UTC

## 1074540 (kA*k[5mC]*kT*dA*dT*d[5mC]*d[5mC]*dA*d[5mC]*dA*dG*dT*dA*kA*kT*kA; antisense) [compound 1074540]
[11]
  YAP1 (% UTC): 26 % UTC

## 958586 (kG*kG*k[5mC]*dA*dG*d[5mC]*dA*d[5mC]*dG*dG*dT*dG*dT*kA*kA*kG; antisense) [Compound 958586]
[7]
  YAP1 (% UTC): 78 % UTC

## 1075317 (antisense kG*kT*kA*dT*dT*d[5mC]*dG*d[5mC]*d[5mC]*dT*d[5mC]*d[5mC]*dT*kG*k[5mC]*kA) [compound 1075317]
[6]
  YAP1 (% UTC): 27 % UTC

## 1074260 (antisense kG*kT*kT*d[5mC]*dA*dT*d[5mC]*dA*dT*dA*dT*dT*d[5mC]*kT*kG*k[5mC]) [compound 1074260]
[8]
  YAP1 (% UTC): 48 % UTC

## 1074830 (kG*kA*kG*dG*dA*dT*dA*dA*dA*dA*dT*d[5mC]*d[5mC]*kA*k[5mC]*k[5mC]; antisense) [compound 1074830]
[1]
  YAP1 (% UTC): 89 % UTC

## 958711 (antisense k[5mC]*k[5mC]*kA*dA*dA*dT*dA*dA*dG*dG*dA*dT*d[5mC]*kT*kG*kT) [Compound 958711]
[7]
  YAP1 (% UTC): 34 % UTC

## 1076020 (k[5mC]*k[5mC]*k[5mC]*d[5mC]*dA*dA*d[5mC]*dA*d[5mC]*dT*dA*dA*dT*kA*kG*kG; antisense) [compound 1076020]
[8]
  YAP1 (% UTC): 60 % UTC

## 958575 (kG*kG*k[5mC]*dT*dA*d[5mC]*dT*dG*dG*d[5mC]*dA*dA*dA*kT*kT*kA; antisense) [Compound 958575]
[5]
  YAP1 (% UTC): 9 % UTC

## 958498 (kG*kA*kG*dT*dA*dT*dG*dT*dG*dG*d[5mC]*dA*dA*kT*kA*kA; antisense) [Compound 958498]
[10]
  YAP1 (% UTC): 1 % UTC

## 1074476 (kT*kT*k[5mC]*d[5mC]*dG*dA*d[5mC]*dA*dA*dA*dA*d[5mC]*d[5mC]*kA*kA*k[5mC]; antisense) [compound 1074476]
[11]
  YAP1 (% UTC): 18 % UTC

## 958583 (kA*kG*k[5mC]*dT*dA*dA*dT*d[5mC]*dT*dG*d[5mC]*dT*dG*kA*kT*kA; antisense) [Compound 958583]
[10]
  YAP1 (% UTC): 89 % UTC

## 1076204 (kG*kA*kT*dA*dA*dT*dG*dA*dA*dT*d[5mC]*d[5mC]*dT*kT*kG*kT; antisense) [compound 1076204]
[11]
  YAP1 (% UTC): 11 % UTC

## 958624 (antisense kG*kG*kG*dA*dT*dT*dG*dA*dT*dA*dT*dT*d[5mC]*k[5mC]*kG*k[5mC]) [Compound 958624]
[3]
  YAP1 (% UTC): 74 % UTC

## 958558 (kT*kT*k[5mC]*dA*d[5mC]*dA*dA*d[5mC]*d[5mC]*dA*dA*d[5mC]*dT*kA*kT*kT; antisense) [Compound 958558]
[10]
  YAP1 (% UTC): 9 % UTC

## 958704 (antisense k[5mC]*k[5mC]*k[5mC]*dT*dA*d[5mC]*dA*d[5mC]*dT*d[5mC]*dG*dA*dG*kG*kA*kT) [Compound 958704]
[3]
  YAP1 (% UTC): 122 % UTC

## 958392 (antisense k[5mC]*kT*kA*dT*dG*dA*dG*dT*d[5mC]*dA*dA*d[5mC]*d[5mC]*kT*kG*k[5mC]) [Compound 958392]
[4]
  YAP1 (% UTC): 50 % UTC

## 1074764 (kA*kT*kG*d[5mC]*dT*dA*d[5mC]*d[5mC]*d[5mC]*dA*dA*dT*dA*k[5mC]*kA*kA; antisense) [compound 1074764]
[11]
  YAP1 (% UTC): 18 % UTC

Source: patent US11214803B2, “Modulators of YAP1 expression” (Ionis Pharmaceuticals, Inc., priority 2019, dated 2022)
